Measurements published in patent publication US20250034139A1, “AMINE COMPOUNDS HAVING ANTI-INFLAMMATORY, ANTIFUNGAL, ANTIPARASITIC, AND ANTICANCER ACTIVITY” (PHARMA CINQ, LLC, priority 2013, published 2025).

What was measured:
[1] = system: PC3 human prostate cancer cells; assay: Example S: in vitro anticancer screen, PC-3 cells, Wst1; type: cell-based; settings: Homo sapiens, PC-3, approximately 20 hours, Wst1, read-out: PC-3, percent of cancer cell survival relative to vehicle treated cells
Outline: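 PC-3 cells, 2×10^4 cells/well, exposed ~20 h to vehicle or compound at 0.4, 0.5 or 2.5 μM as specified per compound. Wst1 dye added for 2 h; absorbance 450 nm (reference 630 nm), triplicates. Values are percent cell survival versus vehicle-treated cells.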

[2] = system: 4T1 murine breast cancer cells; assay: Example S: in vitro anticancer screen, 4T1 cells, Wst1; type: cell-based, mouse; settings: Mus musculus, 4T1, 18 h, 18 hr, Wst1; for viability at 1 µM: read-out: 4T1 1 μM, percent of cancer cell survival relative to vehicle treated cells; for viability at 5 µM: read-out: 4T1 5 μM, percent of cancer cell survival relative to vehicle treated cells
Outline: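 4T1 cells seeded at 1×10^4/well were exposed to compound at 1 μM or 5 μM for 18 hr after plating. Wst1 tetrazolium dye was then added for about 2 hr and absorbance read at 450 nm (reference 630 nm). Values are percent survival relative to vehicle-treated cells.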

THP-1 cells = assay: Example D: LPS-triggered THP-1 cell death assay, acute/5-hour and chronic/48-hour; type: cell-based, Human; settings: 10 ng/ml LPS, 0.1 μM test compound, 48 hours
Experimental: Compounds of the invention were tested at 0.1 μM versus AC in the LPS-triggered THP-1 cell death assay. Both acute/5-hour and chronic/48-hour phases of cell death were assessed. Compounds were screened in batches with DMSO as the negative control and AC as the high activity control.

[3] = system: PC-3 prostate cancer cells; assay: Example T: sensitisation of PC-3 cells to doxorubicin, oxaliplatin, paclitaxel or vincristine, Wst1; type: cell-based, human; settings: PC-3 cells, 72 hours; for viability at 0.5 µM: compound 0.5 μM alone; for Doxorubicin 3.5 μM: percent cell survival / Oxaliplatin 100 μM: percent cell survival / Paclitaxel 50 μM: percent cell survival / Vincristine 100 nM: percent cell survival: chemotherapy agent alone normalized to 100%
[4] = Homo sapiens, Wst1, vehicle = 100, read-out: No Chemo: percent cell survival
[5] = compound 0.5 μM + doxorubicin 3.5 μM
[6] = compound 0.5 μM + oxaliplatin 100 μM
[7] = compound 0.5 μM + paclitaxel 50 μM
[8] = compound 0.5 μM + vincristine 100 nM

Row | SMILES | viability at 0.5 µM [1] | viability at 1 µM [2] | viability at 5 µM [2] | Viable cell percent change, Chronic/48-hour, Mean (THP-1 cells) | viability at 0.5 µM [3, 4] | Doxorubicin 3.5 μM: percent cell survival [3, 5] | Oxaliplatin 100 μM: percent cell survival [3, 6] | Paclitaxel 50 μM: percent cell survival [3, 7] | Vincristine 100 nM: percent cell survival [3, 8] | further results
1 | CCCCCCCCOCCCCCCn1cnc2cnc3ccccc3c21 [FI, 1-[6-(Octyloxy)hexyl]-1H-imidazo[4,5-c]quinoline] | 35.2% | 26.5% | 26.7% | 12.70% | 35.2% | 79.8% | 91.4% | 84% | 73.7% | 
2 | CCCCCCOCCCCCCCCCn1cnc2cnc3ccccc3c21 [FJ, 1-[9-(Hexyloxy)nonyl]-1H-imidazo[4,5-c]quinoline] | 38.6% | 38.1% | 24.5% | 27.44% | 38.6% | 75.1% | 93% | 97.3% | 82.2% | 
3 | CCCCOCCCCCCCCCCn1cnc2cnc3ccccc3c21 [FK, 1-(10-Butoxydecyl)-1H-imidazo[4,5-c]quinoline] | 35.5% | 23.6% | 15.6% | 16.57% | 35.5% | 47.4% | 62% | 18% | 39% | 
4 | COCCCCCCCCNc1cc[n+](C)cc1.[I-] [FL, 4-(8-Methoxyoctylamino)-1-methylpyridinium iodide] |  | 27.7% | 21.4% | 38.59% |  |  |  |  |  | viability at 0.4 µM ([1]; 0.4 μM): 41.2%; viability at 0.4 µM ([3]; Homo sapiens, compound 0.4 μM alone, Wst1, vehicle = 100, read-out: No Chemo: percent cell survival): 41.2%; Doxorubicin 3.5 μM: percent cell survival ([3]; compound 0.4 μM + doxorubicin 3.5 μM): 81.3%; Oxaliplatin 100 μM: percent cell survival ([3]; compound 0.4 μM + oxaliplatin 100 μM): 87.9%; Paclitaxel 50 μM: percent cell survival ([3]; compound 0.4 μM + paclitaxel 50 μM): 92.8%; Vincristine 100 nM: percent cell survival ([3]; compound 0.4 μM + vincristine 100 nM): 69.7%
5 | CCCCCCOCCCCCCCCNc1cccc2cnccc12 [FT, N-[8-(Hexyloxy)octyl]isoquinolin-5-amine] |  | 113% | 27.6% | 3.59% |  |  |  |  |  | viability at 2.5 µM ([1]; 2.5 μM): 41.1%; viability at 2.5 µM ([3]; Homo sapiens, compound 2.5 μM alone, Wst1, vehicle = 100, read-out: No Chemo: percent cell survival): 41.1%; Doxorubicin 3.5 μM: percent cell survival ([3]; compound 2.5 μM + doxorubicin 3.5 μM): 74.4%; Oxaliplatin 100 μM: percent cell survival ([3]; compound 2.5 μM + oxaliplatin 100 μM): 94.2%; Paclitaxel 50 μM: percent cell survival ([3]; compound 2.5 μM + paclitaxel 50 μM): 85.2%; Vincristine 100 nM: percent cell survival ([3]; compound 2.5 μM + vincristine 100 nM): 78.3%
6 | CCCCCCCCCCOCCCCn1cnc2cnc3ccccc3c21 [GA, 1-[4-(Decyloxy)butyl]-1H-imidazo[4,5-c]quinoline] |  | 97.1% | 35.5% | 16.51% |  |  |  |  |  | viability at 1.5 µM ([1]; 1.5 μM): 41.3%; viability at 1.5 µM ([3]; Homo sapiens, compound 1.5 μM alone, Wst1, vehicle = 100, read-out: No Chemo: percent cell survival): 41.3%; Doxorubicin 3.5 μM: percent cell survival ([3]; compound 1.5 μM + doxorubicin 3.5 μM): 82.2%; Oxaliplatin 100 μM: percent cell survival ([3]; compound 1.5 μM + oxaliplatin 100 μM): 91.8%; Paclitaxel 50 μM: percent cell survival ([3]; compound 1.5 μM + paclitaxel 50 μM): 109.2%; Vincristine 100 nM: percent cell survival ([3]; compound 1.5 μM + vincristine 100 nM): 84.2%
